The target in one data set is Human 11β-HSD1 (Homo sapiens, UniProt P28845). As to the kind of experiment: Evaluation of compound against human 11β-HSD1 (HTRF cortisol assay, cortisone substrate). Format: biochemical. Conditions: cortisone 5 μM, 37° C. 2 hours. Here is the method: Evaluation Method of […] Inhibitor (Evaluation of Compound Against Human 11β-HSD1)
(§1) After preincubating an inhibitor in a reaction solution consisting of 50 mM sodium phosphate buffer (pH 7.5), bovine serum albumin (1 mg/mL), NADPH (0.42 mg/mL), glucose-6-phosphate (1.26 mg/mL), glucose-6-phosphate dehydrogenase and an enzyme at room temperature for 30), (Inutes, cortisone (5 μM) was added as a substrate (total amount 10 μL). After reacting at 37° C. for 2 hours, an XL-665-labeled cortisol solution (5 μL), and a Cryptate-labeled anti-cortisol antibody solution (5 μL) were added. The reaction was performed at room temperature for 2 hours, and fluorescence intensity (HTRF method) was measured. A cortisol concentration was calculated from a standard curve prepared using a known concentration of cortisol for each assay.
Taking a concentration of cortisol generated in the absence of the inhibitor as a control value, 50% inhibitory concentration (IC50 value) of the inhibitor against 11β-HSD1 was calculated from an inhibition curve plotting inhibition rate against the control value at each concentration of an inhibitor.
A general note: In TR-FRET formats the signal depends on donor and acceptor labels being close together.

The target in another data set is Mouse 11β-HSD1 (Mus musculus, UniProt P50172). Put plainly: Evaluation of compound against mouse 11β-HSD1 (HTRF assay, 11-dehydrocorticosterone substrate). Format: biochemical. Conditions: 11-dehydrocorticosterone 2 μM, 37° C. 2 hours. The procedure:
Evaluation Method of 11β-HSD1 Inhibitor (Evaluation of Compound Against Mouse 11β-HSD1)
as §1, with “dehydrogenase,” for “dehydrogenase”, “30 minutes, 11-dehydrocorticosterone (2” for “30), (Inutes, cortisone (5”, “measured.” for “measured. A cortisol concentration was calculated from a standard curve prepared using a known concentration of cortisol for each assay.”
A corticosterone concentration was calculated from a standard curve prepared using a known concentration of corticosterone for each assay.
Taking a concentration of corticosterone generated in the absence of the inhibitor as a control value, 50% inhibitory concentration (IC50 value) of the inhibitor against 11β-HSD1 was calculated from an inhibition curve plotting inhibition rate against the control value at each concentration of the inhibitor.

A short description of data set [1]: log k′ (degree of lipophilic character) by gradient HPLC. Format: physicochemical. Conditions: XTerra MS C18 column; acetonitrile/pH6.8 buffer gradient 5:95-95:5/20 min. Here is the method:
As to each compound, the measurement results of NMR or log k′ were disclosed.
log k′ is a value which means degree of the lipophilic character, and is calculated by the following formula. log k′=log(tR−t0)/t0 • tR: retention time of compound under gradient condition • t0: retention time of standard material not retained in column
XTerra MS C18 5 μm, 2.1×100 mm column (made by Waters) was used for measurement. The elution was a straight line inclination of acetonitrile/pH6.8 buffer (5:95˜95:5/20 min) at flow velocity 0.25 mL/min.

Chain of Mouse 11β-HSD1 (P50172 whole entry): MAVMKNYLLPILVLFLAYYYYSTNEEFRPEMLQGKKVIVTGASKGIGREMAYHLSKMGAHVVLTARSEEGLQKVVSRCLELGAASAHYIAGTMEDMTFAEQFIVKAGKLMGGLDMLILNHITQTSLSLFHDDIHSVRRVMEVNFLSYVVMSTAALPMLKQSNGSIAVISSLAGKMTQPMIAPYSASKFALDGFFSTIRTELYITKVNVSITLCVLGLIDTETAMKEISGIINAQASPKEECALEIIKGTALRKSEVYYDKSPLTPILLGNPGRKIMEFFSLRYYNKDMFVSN
Chain of Human 11β-HSD1 (P28845 whole entry): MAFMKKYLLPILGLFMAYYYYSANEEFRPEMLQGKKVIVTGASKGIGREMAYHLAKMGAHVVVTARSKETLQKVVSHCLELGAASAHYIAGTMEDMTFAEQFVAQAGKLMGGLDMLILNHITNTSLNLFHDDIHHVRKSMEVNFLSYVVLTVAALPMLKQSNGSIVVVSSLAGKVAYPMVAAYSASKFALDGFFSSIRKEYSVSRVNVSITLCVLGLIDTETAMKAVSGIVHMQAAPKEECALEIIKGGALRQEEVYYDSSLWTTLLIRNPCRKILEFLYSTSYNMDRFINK

As for `COC(=O)NC(C)(C)/C=C/n1ncc(C(=O)N[C@H]2C3CC4CC2C[C@](F)(C4)C3)c1-c1ccccc1` [Compound I-128], the figures for the half-inhibitory concentration (IC50) against Human 11β-HSD1 and at Mouse 11β-HSD1 were 62.4 nM and 5.5 nM, respectively. Regarding `CC(C)COc1c(C(=O)N[C@H]2C3CC4CC2C[C@](CO)(C4)C3)cnn1/C=C/C(C)(C)C(N)=O` [Compound I-63], the results for the IC50 against Human 11β-HSD1 and against Mouse 11β-HSD1 were 1.4 nM and 0.21 nM, respectively. Consider `CC(C)COc1c(C(=O)N[C@H]2C3CC4CC2C[C@](O)(C4)C3)cnn1/C=C/C(C)(C)NC(=O)CCC1CCCC1` [Compound I-36], for which the results for the IC50 against Human 11β-HSD1 and against Mouse 11β-HSD1 were 1.2 nM and 1 nM, respectively. Consider `CC(=O)NC(C)(C)/C=C/n1ncc(C(=O)N[C@H]2C3CC4CC2C[C@](CO)(C4)C3)c1-c1ccccc1` [Compound I-131], for which the values for the IC50 against Human 11β-HSD1 and against Mouse 11β-HSD1 were 20.8 nM and 1.4 nM, respectively. With `COC(=O)NC(C)(C)/C=C/n1ncc(C(=O)N[C@H]2C3CC4CC2C[C@](O)(C4)C3)c1-n1cccn1` [Compound I-133], the IC50 (commonly the point on the concentration scale where inhibition reaches its midpoint) against Human 11β-HSD1 worked out at 75.6 nM; against Mouse 11β-HSD1, 0.52 nM. For `CC(=O)NC(C)(C)/C=C/n1ncc(C(=O)N[C@H]2C3CC4CC2C[C@](CO)(C4)C3)c1CC(C)C` [Compound I-121], the IC50 on Human 11β-HSD1 came out at 154 nM; against Mouse 11β-HSD1 it was 4.9 nM. In the case of `CC(C)COc1c(C(=O)N[C@H]2C3CC4CC2C[C@](OC(N)=O)(C4)C3)cnn1/C=C/C(C)(C)C#N` [Compound I-7], the IC50 against Human 11β-HSD1 was determined as 3.4 nM; against Mouse 11β-HSD1 it was 0.41 nM. For the compound `CC(C)COc1c(C(=O)NC2C3CC4CC2CC(O)(C4)C3)cnn1C=CC(C)(C)NC(=O)COCc1ccccc1` (stereo not shown) [Compound I-77], the values for the IC50 against Human 11β-HSD1 and against Mouse 11β-HSD1 were 0.62 nM and 0.23 nM, respectively. With `COC(=O)NC(C)(C)/C=C/n1ncc(C(=O)NC2C3CC4CC2CC(COC(N)=O)(C4)C3)c1-n1cccn1` (stereo not shown) [Compound I-139], the IC50 against Human 11β-HSD1 is 64.4 nM; at Mouse 11β-HSD1 it was 0.37 nM. As for `COC(=O)NC(C)(C)/C=C/n1ncc(C(=O)N[C@H]2C3CC4CC2C[C@](OC(N)=O)(C4)C3)c1-c1ccccc1` [Compound I-127], the half-inhibitory concentration (IC50) against Human 11β-HSD1 amounted to 88.1 nM; at Mouse 11β-HSD1 it was 3 nM.

For `CC(C)COc1c(C(=O)N[C@H]2C3CC4CC2C[C@](OC(N)=O)(C4)C3)cnn1/C=C/C(C)(C)NS(C)(=O)=O` [Compound I-9], the IC50 against Human 11β-HSD1 came to 11 nM; against Mouse 11β-HSD1, 1.7 nM. As for `CC(=O)NC(C)(C)CCn1ncc(C(=O)N[C@H]2C3CC4CC2C[C@](COC(N)=O)(C4)C3)c1OCC(C)C` [Compound I-57], the “log k′” value in data set [1] turned out to be 0.852. As to `CC(=O)NC(C)(C)/C=C/n1ncc(C(=O)NC23CCC(C(N)=O)(CC2)C3)c1OCC(C)C` [Compound I-12], in data set [1], the “log k′” value is recorded as 0.763.

As to `C=CCC1C2CCC(C2)C1NC(=O)c1cnn(/C=C/C(C)(C)NC(C)=O)c1OCC(C)C` (stereo not shown) [Compound I-14], the “log k′” value in data set [1] is 0.981.
